Key:
S-protein = settings: cited from earlier work
Ribonuclease S = Ribonuclease S activity, degradation of yeast polymeric RNA (absorbance at 255 nm); type: biochemical, bovine; settings: for effect on RNase S activity (in words): consecutive addition to S-protein + bS15 reaction mix; for Activity: initial velocity relative to S-protein (50 ng) plus S15 (10 μg) = 100%, consecutive addition of S-protein (50 ng), bS15 (approx. 5 μg), streptavidin (10 μg), S15 (5 μg), 75 ug/mL yeast RNA, pH 7.0, 25° C., 2 minutes
Protocol: Ribonuclease S activity was measured in terms of degradation of yeast polymeric RNA. Degradation was monitored as an increase in absorbance at 255 nm of the reaction cocktail. The reaction cocktail included 50 mM imidazole.HCl buffer, pH 7.0, 0.1 M NaCl, and 75 ug/mL yeast RNA, in a volume of 800 uL. The change in absorbance was monitored at 25° C. for 2 minutes following the consecutive addition of S-protein (50 ng), bS15 (approx. 5 μg), streptavidin (10 μg), and authentic S15 (5 μg).
For comparison, the degradative activity in a reaction mix containing S-protein (50 ng) plus S15 (10 μg) is defined to be 100%. […] The initial velocity of each reaction was determined from the initial slope of a plot of absorbance v. time.

Substance: S-peptide: residues 1-20 of RNase A, subtilisin cleavage product
- Kd (S-protein; S-peptide and S-protein, read-out: dissociation constant): 1 nM

Substance: S15: truncated S-peptide formed from the first 15 residues of the S-peptide, SEQ ID NO:1 (KETAAAKFERQHMDS)
- effect on RNase S activity (in words) (Ribonuclease S): RNase S activity could be reconstituted
- Activity (Ribonuclease S): 40%
- binding to S-protein compared with intact S-peptide (S-protein; truncated S-peptide, first 15 residues): binds equally well

Substance: streptavidin
- effect on RNase S activity (in words) (Ribonuclease S): sufficient to inactivate RNase S
- Activity (Ribonuclease S): < 0.01%
